Measured values reported in ChEMBL document CHEMBL1201862, “PubChem BioAssay data set” (2004).
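96-well plates; 48 h exposure; 5 concentrations. Endpoints by linear interpolation between flanking doses. Not reached: highest tested concentration assigned. Abbreviation: GI50, concentration required for 50% inhibition of growth.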 Activity calls are given as the source filed them. Rule as the data show it: active = GI50 up to about 1.1 µM and inactive = higher.

What was measured:
Assay in all cases: DTP human tumour cell line panel, 48 h
HCT-15 = system: HCT-15
SR = system: SR
SF-295 = system: SF-295
PC-3 = system: PC-3
Malme-3M = system: Malme-3M
CAKI-1 = system: CAKI-1
M14 = system: M14
UO-31 = system: UO-31
ACHN = system: ACHN
HOP-62 = system: HOP-62
UACC-257 = system: UACC-257
NCI-H522 = system: NCI-H522
HT-29 = system: HT-29
SN12C = system: SN12C
NCI-H226 = system: NCI-H226
UACC-62 = system: UACC-62
MOLT-4 = system: MOLT-4
NCI/ADR-RES = system: NCI/ADR-RES
SNB-19 = system: SNB-19
HCC 2998 = system: HCC 2998

Row | SMILES | GI50 (HCT-15) [µM] | GI50 (SR) | GI50 (SF-295) | GI50 (PC-3) | GI50 (Malme-3M) | GI50 (CAKI-1) | GI50 (M14) | GI50 (UO-31) | GI50 (ACHN) | GI50 (HOP-62) | GI50 (UACC-257) | GI50 (NCI-H522) | GI50 (HT-29) | GI50 (SN12C) | GI50 (NCI-H226) | GI50 (UACC-62) | GI50 (MOLT-4) | GI50 (NCI/ADR-RES) | GI50 (SNB-19) | GI50 (HCC 2998)
1 | CN(C)CCNC(=O)c1ccc(NC(=O)c2nc([N+](=O)[O-])cn2C)cc1 | > 100 | > 100 µM (inactive) | > 100 µM (inactive) | > 100 µM (inactive) | > 100 µM (inactive) | > 100 µM (inactive) | > 100 µM (inactive) | > 100 µM (inactive) | > 100 µM (inactive) | > 100 µM (inactive) | > 100 µM (inactive) | > 100 µM (inactive) | > 100 µM (inactive) | > 100 µM (inactive) | > 100 µM (inactive) | > 100 µM (inactive) | > 100 µM (inactive) | > 100 µM (inactive) |  | 
2 | CCOC(=O)NC | > 100 | > 100 µM (inactive) | > 100 µM (inactive) | > 100 µM (inactive) | > 100 µM (inactive) | > 100 µM (inactive) | > 100 µM (inactive) | > 100 µM (inactive) | > 100 µM (inactive) | > 100 µM (inactive) | > 100 µM (inactive) |  | > 100 µM (inactive) | > 100 µM (inactive) |  | > 100 µM (inactive) |  | > 100 µM (inactive) | > 100 µM (inactive) | > 100 µM (inactive)
3 | CC(=O)Oc1c(C)cc(-c2cc(C)c(OC(C)=O)c(C)c2)cc1C | 20.3 | 75.2 µM (inactive) | 23.7 µM (inactive) | 14.1 µM (inactive) | 89.3 µM (inactive) | 57.9 µM (inactive) | 31.1 µM (inactive) | 26.9 µM (inactive) | 33 µM (inactive) | 45.7 µM (inactive) | 41.6 µM (inactive) | 24 µM (inactive) | 45.4 µM (inactive) | 47.1 µM (inactive) | 29.7 µM (inactive) | 23 µM (inactive) | > 100 µM (inactive) | 21.1 µM (inactive) | 70.1 µM (inactive) | 
4 | Nc1c(Cl)ncnc1N[C@@H]1C[C@H]1CO | > 100 | > 100 µM (inactive) | > 100 µM (inactive) | > 100 µM (inactive) |  | > 100 µM (inactive) | > 100 µM (inactive) | > 100 µM (inactive) | > 100 µM (inactive) | > 100 µM (inactive) | > 100 µM (inactive) | > 100 µM (inactive) | > 100 µM (inactive) | > 100 µM (inactive) |  | > 100 µM (inactive) | > 100 µM (inactive) | > 100 µM (inactive) | > 100 µM (inactive) | > 100 µM (inactive)
5 | Nc1cc(Cl)ccc1SSc1ccc(Cl)cc1N | 2.99 | 4.32 µM (inactive) | 11 µM (inactive) | 5.7 µM (inactive) | 15.7 µM (inactive) | 19.6 µM (inactive) | 8.65 µM (inactive) | 7 µM (inactive) | 9.55 µM (inactive) | 14.6 µM (inactive) | 17.6 µM (inactive) | 7.57 µM (inactive) | 16.1 µM (inactive) | 11.9 µM (inactive) | 2.94 µM (inactive) | 2.88 µM (inactive) | 4.06 µM (inactive) | 7.94 µM (inactive) | 22.6 µM (inactive) | 
6 | CN(C)/C=N\c1cccc2cnccc12 | > 100 | > 100 µM (inactive) | > 100 µM (inactive) | > 100 µM (inactive) | > 100 µM (inactive) | > 100 µM (inactive) | > 100 µM (inactive) | > 100 µM (inactive) | > 100 µM (inactive) | > 100 µM (inactive) | > 100 µM (inactive) | > 100 µM (inactive) | > 100 µM (inactive) | > 100 µM (inactive) | > 100 µM (inactive) | > 100 µM (inactive) | > 100 µM (inactive) | > 100 µM (inactive) | > 100 µM (inactive) | 
7 | Cc1cn(CCCCCCOC(=O)NC(CCCNC(=N)N)C(=O)O)c(=O)[nH]c1=O (stereo not given) | > 100 | > 100 µM (inactive) | > 100 µM (inactive) | > 100 µM (inactive) |  | > 100 µM (inactive) | > 100 µM (inactive) | > 100 µM (inactive) | > 100 µM (inactive) | > 100 µM (inactive) | > 100 µM (inactive) |  | > 100 µM (inactive) | > 100 µM (inactive) | > 100 µM (inactive) | > 100 µM (inactive) | > 100 µM (inactive) | > 100 µM (inactive) | > 100 µM (inactive) | > 100 µM (inactive)
8 | COc1ccc(C2OCCN2C)cc1 (stereo not given) | > 100 | > 100 µM (inactive) | > 100 µM (inactive) | > 100 µM (inactive) | > 100 µM (inactive) | > 100 µM (inactive) | > 100 µM (inactive) | > 100 µM (inactive) | > 100 µM (inactive) | > 100 µM (inactive) | > 100 µM (inactive) | > 100 µM (inactive) | > 100 µM (inactive) |  | > 100 µM (inactive) | > 100 µM (inactive) | > 100 µM (inactive) | > 100 µM (inactive) | > 100 µM (inactive) | 
9 | CCOc1cc(/C=N\N(C)C)cc(/C=N\N(C)C)c1O | 35.2 | 38 µM (inactive) | 41.3 µM (inactive) | 33.2 µM (inactive) | 32.4 µM (inactive) | 18.3 µM (inactive) | 40.2 µM (inactive) | 29.4 µM (inactive) | 21.5 µM (inactive) | 50.8 µM (inactive) | 36 µM (inactive) |  | 42.3 µM (inactive) | 54 µM (inactive) | 38.3 µM (inactive) | 69 µM (inactive) | 61 µM (inactive) | 35.8 µM (inactive) | 48.9 µM (inactive) | 91.2 µM (inactive)
10 | C[n+]1c(-c2ccccc2)cc2/c(=C\c3ccccc3)c3ccccc3n21 | 3.47 |  | 4.93 µM (inactive) | 0.918 µM (active) | 1.14 µM (inactive) | 2.94 µM (inactive) | 1.27 µM (inactive) | 2.95 µM (inactive) | 3.13 µM (inactive) | 2.43 µM (inactive) | 0.991 µM (active) | 0.363 µM (active) | 1.06 µM (active) | 0.308 µM (active) | 0.418 µM (active) | 1.3 µM (inactive) | 1.73 µM (inactive) | 14.6 µM (inactive) | 0.731 µM (active) | 3.84 µM (inactive)
11 | Cc1cc2c(cc1Cl)SC(NNC(=O)c1ccco1)=NS2(=O)=O | > 10 |  | > 10 µM (inactive) | > 10 µM (inactive) | > 10 µM (inactive) | > 10 µM (inactive) | > 10 µM (inactive) | > 10 µM (inactive) | > 10 µM (inactive) | > 10 µM (inactive) | > 10 µM (inactive) | > 10 µM (inactive) | > 10 µM (inactive) | > 10 µM (inactive) | > 10 µM (inactive) | > 10 µM (inactive) | > 10 µM (inactive) | > 10 µM (inactive) | > 10 µM (inactive) | > 10 µM (inactive)
12 | COc1ccc(NC(S)=Nc2cccc(C)n2)cc1 | 78.2 | > 100 µM (inactive) | 33.3 µM (inactive) | > 100 µM (inactive) |  | 37.9 µM (inactive) | > 100 µM (inactive) | > 100 µM (inactive) | > 100 µM (inactive) | 25.6 µM (inactive) | > 100 µM (inactive) |  | > 100 µM (inactive) |  | > 100 µM (inactive) | > 100 µM (inactive) | > 100 µM (inactive) | > 100 µM (inactive) | > 100 µM (inactive) | > 100 µM (inactive)
